This note sets out measurements from patent US20120184583A1, “MODULATORS OF ATP-BINDING CASSETTE TRANSPORTERS” (VERTEX PHARMACEUTICALS INCORPORATED, priority 2003, published 2012).

T1 sequence (P13569 with tags, fused parts or gaps DEL508-508): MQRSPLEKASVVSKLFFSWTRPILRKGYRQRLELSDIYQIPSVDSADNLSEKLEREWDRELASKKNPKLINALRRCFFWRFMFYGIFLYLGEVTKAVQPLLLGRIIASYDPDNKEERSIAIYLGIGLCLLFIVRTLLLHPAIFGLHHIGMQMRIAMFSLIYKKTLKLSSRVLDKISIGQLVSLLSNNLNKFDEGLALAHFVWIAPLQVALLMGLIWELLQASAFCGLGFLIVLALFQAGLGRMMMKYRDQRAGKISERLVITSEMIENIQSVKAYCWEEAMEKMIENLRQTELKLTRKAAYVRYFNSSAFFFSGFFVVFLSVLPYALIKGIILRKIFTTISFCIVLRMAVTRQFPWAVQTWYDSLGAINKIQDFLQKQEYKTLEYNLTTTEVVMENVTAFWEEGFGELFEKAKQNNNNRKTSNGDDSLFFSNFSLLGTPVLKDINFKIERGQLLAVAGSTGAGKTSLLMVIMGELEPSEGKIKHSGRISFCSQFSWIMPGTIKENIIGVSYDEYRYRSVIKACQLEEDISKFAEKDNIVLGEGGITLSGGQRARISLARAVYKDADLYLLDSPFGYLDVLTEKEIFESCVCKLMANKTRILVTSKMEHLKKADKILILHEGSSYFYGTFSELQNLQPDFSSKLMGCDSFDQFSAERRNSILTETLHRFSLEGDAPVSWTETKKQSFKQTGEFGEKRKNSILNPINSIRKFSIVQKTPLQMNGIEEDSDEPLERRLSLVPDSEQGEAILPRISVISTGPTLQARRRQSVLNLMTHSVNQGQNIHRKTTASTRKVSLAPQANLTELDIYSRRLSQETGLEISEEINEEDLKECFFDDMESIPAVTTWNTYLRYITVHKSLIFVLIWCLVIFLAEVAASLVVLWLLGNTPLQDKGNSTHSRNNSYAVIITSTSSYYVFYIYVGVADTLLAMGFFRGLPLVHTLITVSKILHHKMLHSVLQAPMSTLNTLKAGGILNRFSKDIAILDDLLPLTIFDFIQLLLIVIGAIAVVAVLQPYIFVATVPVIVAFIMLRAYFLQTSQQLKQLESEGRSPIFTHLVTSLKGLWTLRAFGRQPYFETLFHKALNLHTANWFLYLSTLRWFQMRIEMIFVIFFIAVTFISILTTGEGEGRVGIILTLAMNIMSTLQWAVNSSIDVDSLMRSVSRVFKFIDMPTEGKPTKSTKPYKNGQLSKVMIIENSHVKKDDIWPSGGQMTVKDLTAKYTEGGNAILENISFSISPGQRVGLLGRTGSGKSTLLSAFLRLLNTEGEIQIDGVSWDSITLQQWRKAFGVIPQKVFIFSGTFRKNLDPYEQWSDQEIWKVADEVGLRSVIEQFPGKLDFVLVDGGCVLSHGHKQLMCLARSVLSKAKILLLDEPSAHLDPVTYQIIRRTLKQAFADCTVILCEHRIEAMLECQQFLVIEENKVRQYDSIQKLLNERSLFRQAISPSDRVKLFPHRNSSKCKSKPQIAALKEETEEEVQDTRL
T2 sequence (P13569 with tags, fused parts or gaps DEL508-508): as above

One assay concerns the target T1, ΔF508-CFTR stably expressed in NIH3T3 cells (Homo sapiens, UniProt P13569, DEL508-508).
T1 construct: expressed in transfected cells
In words: Membrane potential optical (FRET/VIPR) assay for ΔF508-CFTR potentiation. It counts as cell-based.
Conditions: not given
The text has this:
Membrane potential optical methods for assaying ΔF508-CFTR potentiation properties of compounds.
These voltage sensitive assays are based on the change in fluorescence resonant energy transfer (FRET) between the membrane-soluble, voltage-sensitive dye, DiSBAC2(3), and a fluorescent phospholipid, CC2-DMPE, which is attached to the outer leaflet of the plasma membrane and acts as a FRET donor. Changes in membrane potential (Vm) cause the negatively charged DiSBAC2(3) to redistribute across the plasma membrane and the amount of energy transfer from CC2-DMPE changes accordingly. The changes in fluorescence emission were monitored using VIPR™ II, which is an integrated liquid handler and fluorescent detector designed to conduct cell-based screens in 96- or 384-well microtiter plates.
To identify potentiators of ΔF508-CFTR, a double-addition HTS assay format was developed (FIG. 1A). During the first addition, a Cl^−-free medium with or without test compound was added to each well. After 22 sec, a second addition of Cl^−-free medium containing 2-10 μM forskolin was added to activate ΔF508-CFTR. The extracellular Cl^− concentration following both additions was 28 mM, which promoted Cl^− efflux in response to ΔF508-CFTR activation and the resulting membrane depolarization was optically monitored using the FRET-based voltage-sensor dyes. The double-addition format has several advantages. First, it enables separation of compounds that act independently of forskolin-activated ΔF508-CFTR. Second, it allows compounds that act from the cytoplasmic surface of the channel to cross the plasma membrane and take effect. Lastly, fluorescent changes that arise from test compound addition alone can be identified.
High-throughput assay format for identifying potentiators of ΔF508-CFTR stably expressed in NIH3T3 cells.
FIG. 1A: Double-addition assay format in which Cl^−-free medium was added with or without the test compound prior to forskolin addition. The cells were incubated at 27° C. for 16-24 hr prior to use.
• Bath Solution #1: (in mM)NaCl 160, KCl 4.5, CaCl2 2, MgCl2 1, HEPES 10, pH 7.4 with NaOH. • Chloride-free bath solution: Chloride salts in Bath Solution #1 are substituted with gluconate salts. • CC2-DMPE: Prepared as a 10 mM stock solution in DMSO and stored at −20° C. • DiSBAC2(3): Prepared as a 10 mM stock in DMSO and stored at −20° C.
NIH3T3 mouse fibroblasts stably expressing ΔF508-CFTR are used for optical measurements of membrane potential. The cells are maintained at 37° C. in 5% CO2 and 90% humidity in Dulbecco's modified Eagle's medium supplemented with 2 mM glutamine, 10% fetal bovine serum, 1×NEAA, β-ME, 1×pen/strep, and 25 mM HEPES in 175 cm^2 culture flasks. For all optical assays, the cells were seeded at 30,000/well in 384-well matrigel-coated plates and cultured for 2 hrs at 37° C. before culturing at 27° C. for 24 hrs.
Take `O=c1c(-c2ccc(O)cc2)coc2cc(O)cc(O)c12` [genistein, reference compound]: the “effect on forskolin-induced membrane depolarization” value was “augmented”.

The assay is the same for the next values; noted with them: NIH3T3, read-out: % Efficacy (relative modulating efficacy in comparison with genistein), normalized to peak genistein response.
As for `Cc1ccc(O)c(-c2cc(-c3ccccc3Oc3ccccc3)n[nH]2)c1` [IA-84], the Emax lay within 35 to 75%.

Consider `Cc1cc(C)c(-c2cc(-c3cc(C)ccc3O)[nH]n2)c(C)c1` [IA-85], for which the Emax fell in the range of 35 to 75%.

With `Cc1ccc(O)c(-c2cc(-c3cccnc3Sc3ccc(Cl)cc3)n[nH]2)c1` [IA-86], the Emax lay within 35 to 75%.

`Cc1ccc(O)c(-c2cc(-c3cccc([N+](=O)[O-])c3)n[nH]2)c1` [IA-87]: the Emax is 35 to 75%.

For `Oc1ccc(Cl)cc1-c1cc(-c2ccc(F)cc2)[nH]n1` [IA-88], the Emax was 35 to 75%.

As to `Cc1ccc(O)c(-c2cc(-c3cc(Cl)ccc3C(F)(F)F)n[nH]2)c1` [IA-89], the Emax fell in the range of 35 to 75%.

Take `Oc1ccc(Cl)cc1-c1cc(-c2ccc(C(F)(F)F)cc2)[nH]n1` [IA-90]: the Emax was in the range of 35 to 75%.

Take `Cc1ccc(O)c(-c2cc(C(Cc3ccccc3)NS(=O)(=O)c3cccc4ccccc34)n[nH]2)c1` (stereo not shown) [IA-91]: the Emax fell in the range of 35 to 75%.

Consider `Cc1cc(-c2cc(-c3cc(F)ccc3O)n[nH]2)c(C(F)(F)F)o1` [IA-92], for which the Emax lay within 35 to 75%.

Turning to `Cc1ccc(O)c(-c2cc(-c3ccncc3)n[nH]2)c1` [IA-93], the Emax lay within 35 to 75%.

Turning to `COc1ccccc1-c1cc(-c2cc(C)ccc2O)[nH]n1` [IA-94], the Emax lay within 35 to 75%.

Take `Cc1ccc(O)c(-c2cc(-c3nc(C)c(-c4ccc5c(c4)OCC5)s3)n[nH]2)c1` [IA-95]: the Emax fell in the range of 35 to 75%.

In the case of `O=[N+]([O-])c1ccccc1-c1cc(-c2ccccc2O)n[nH]1` [IA-97], the Emax is 35 to 75%.

For the molecule `Oc1ccccc1-c1cc(-c2ccc(C(F)(F)F)cc2F)n[nH]1` [IA-98], the Emax lay in the range of 35 to 75%.

`COc1ccc(-c2cc(-c3cc(C)ccc3O)n[nH]2)c(F)c1` [IA-99]: the Emax lay in the range of 35 to 75%.

Take `COc1ccc(-c2cc(-c3ccc(C)cc3O)n[nH]2)cc1` [IA-100]: the Emax is 35 to 75%.

For `CCOc1ncccc1-c1cc(-c2ccccc2O)[nH]n1` [IA-101], the Emax lay in the range of 35 to 75%.

For `Cc1ccc(O)c(-c2cc(-c3ccc([N+](=O)[O-])cc3)n[nH]2)c1` [IA-102], the Emax was in the range of 35 to 75%.

As to `Cc1ccc(O)c(-c2cc(-c3ccc(C(F)(F)F)cc3)[nH]n2)c1` [IA-103], the Emax is below 35%.

Turning to `Cc1ccc(O)c(-c2cc(-c3ccc(F)cc3)[nH]n2)c1` [IA-104], the Emax was in the range of 35 to 75%.

Turning to `Cc1ccc(O)c(-c2cc(-c3c(Cl)cccc3Cl)n[nH]2)c1` [IA-105], the Emax fell in the range of 35 to 75%.

Turning to `Cc1ccc(-c2cc(-c3cccc(F)c3)[nH]n2)c(O)c1` [IA-106], the Emax fell in the range of 35 to 75%.

As for `Cc1ccc(O)c(-c2cc(-c3cc(C)on3)n[nH]2)c1` [IA-107], the Emax fell in the range of 35 to 75%.

Turning to `O=[N+]([O-])c1ccc(-c2cc(-c3cc(C(F)(F)F)ccc3O)[nH]n2)cc1` [IA-114], the Emax was in the range of 35 to 75%.

Take `Cc1ccc(O)c(-c2cc(-c3cc(Cl)ccc3F)n[nH]2)c1` [IA-115]: the Emax was below 35%.

The same assay, now with this note: data not shown.
For the molecule `O=c1c(-c2ccc(O)cc2)coc2cc(O)cc(O)c12` [genistein, reference compound], the “membrane potential response in the absence of forskolin addition” value is “no response”.

The same assay, now with this note: normalized to peak genistein response.
Consider `Oc1ccccc1-c1cc(-c2ccccc2Cl)[nH]n1` [IA-113], for which the “% Efficacy (relative modulating efficacy in comparison with genistein)” value is on record as “+ (an efficacy range of <35% when compared to genistein)”.

Staying with this assay, now noted: optical assay, n=35.
Take `O=c1c(-c2ccc(O)cc2)coc2cc(O)cc(O)c12` [genistein, reference compound]: the “potentiation of the forskolin-induced response” value amounted to 72.8±7.2%.

Another assay has as its target T2, ΔF508-CFTR expressed in FRT epithelial cells (Homo sapiens, UniProt P13569, DEL508-508).
T2 construct: expressed in transfected cells; host or cells: Fisher rat epithelial (FRT) cells, vector-infected
The assay is described as follows: Ussing chamber assay, short-circuit current in FRT epithelia. It counts as cell-based. To be noted: genistein 50 μM added after forskolin 10 μM, n=8.
Procedure: FRT^ΔF508-CFTR epithelial cells grown on Costar Snapwell cell culture inserts were mounted in an Ussing chamber (Physiologic Instruments, Inc., San Diego, Calif.), and the monolayers were continuously short-circuited using a Voltage-clamp System (Department of Bioengineering, University of Iowa, Iowa, and, Physiologic Instruments, Inc., San Diego, Calif.). Transepithelial resistance was measured by applying a 2-mV pulse. […] Typical protocol utilized a basolateral to apical membrane Cl^− concentration gradient. To set up this gradient, normal ringers was used on the basolateral membrane and was permeabilized with nystatin (360 μg/ml), whereas apical NaCl was replaced by equimolar sodium gluconate (titrated to pH 7.4 with NaOH) to give a large Cl concentration gradient across the epithelium. All experiments were performed 30 min after nystatin permeabilization. The solutions were maintained at 27° C. and bubbled with air. The electrode offset potential and fluid resistance were corrected using a cell-free insert. Under these conditions, the current reflects the flow of Cl^− through ΔF508-CFTR expressed in the apical membrane. The ISC was digitally acquired using an MP100A-CE interface and AcqKnowledge software (version 3.2.6; BIOPAC Systems, Santa Barbara, Calif.). Forskolin (10 μM) and all test compounds were added to both sides of the cell culture inserts. […]
Turning to `O=c1c(-c2ccc(O)cc2)coc2cc(O)cc(O)c12` [genistein, reference compound], the “ISC potentiated to” value is recorded as 21±1.5 μA/cm^2.

Staying with this assay, now noted: no forskolin, data not shown.
For `O=c1c(-c2ccc(O)cc2)coc2cc(O)cc(O)c12` [genistein, reference compound], the “stimulation of ISC when applied prior to forskolin addition” value is reported as “did not stimulate”.
